Here are results for 42 compounds from patent publication US10479784B2, “Substituted pyrazin-2-amines as inhibitors of ATR kinase” (Vertex Pharmaceuticals Incorporated, priority 2008, dated 2019).

Sequence of full-length ATR (Q13535 whole entry): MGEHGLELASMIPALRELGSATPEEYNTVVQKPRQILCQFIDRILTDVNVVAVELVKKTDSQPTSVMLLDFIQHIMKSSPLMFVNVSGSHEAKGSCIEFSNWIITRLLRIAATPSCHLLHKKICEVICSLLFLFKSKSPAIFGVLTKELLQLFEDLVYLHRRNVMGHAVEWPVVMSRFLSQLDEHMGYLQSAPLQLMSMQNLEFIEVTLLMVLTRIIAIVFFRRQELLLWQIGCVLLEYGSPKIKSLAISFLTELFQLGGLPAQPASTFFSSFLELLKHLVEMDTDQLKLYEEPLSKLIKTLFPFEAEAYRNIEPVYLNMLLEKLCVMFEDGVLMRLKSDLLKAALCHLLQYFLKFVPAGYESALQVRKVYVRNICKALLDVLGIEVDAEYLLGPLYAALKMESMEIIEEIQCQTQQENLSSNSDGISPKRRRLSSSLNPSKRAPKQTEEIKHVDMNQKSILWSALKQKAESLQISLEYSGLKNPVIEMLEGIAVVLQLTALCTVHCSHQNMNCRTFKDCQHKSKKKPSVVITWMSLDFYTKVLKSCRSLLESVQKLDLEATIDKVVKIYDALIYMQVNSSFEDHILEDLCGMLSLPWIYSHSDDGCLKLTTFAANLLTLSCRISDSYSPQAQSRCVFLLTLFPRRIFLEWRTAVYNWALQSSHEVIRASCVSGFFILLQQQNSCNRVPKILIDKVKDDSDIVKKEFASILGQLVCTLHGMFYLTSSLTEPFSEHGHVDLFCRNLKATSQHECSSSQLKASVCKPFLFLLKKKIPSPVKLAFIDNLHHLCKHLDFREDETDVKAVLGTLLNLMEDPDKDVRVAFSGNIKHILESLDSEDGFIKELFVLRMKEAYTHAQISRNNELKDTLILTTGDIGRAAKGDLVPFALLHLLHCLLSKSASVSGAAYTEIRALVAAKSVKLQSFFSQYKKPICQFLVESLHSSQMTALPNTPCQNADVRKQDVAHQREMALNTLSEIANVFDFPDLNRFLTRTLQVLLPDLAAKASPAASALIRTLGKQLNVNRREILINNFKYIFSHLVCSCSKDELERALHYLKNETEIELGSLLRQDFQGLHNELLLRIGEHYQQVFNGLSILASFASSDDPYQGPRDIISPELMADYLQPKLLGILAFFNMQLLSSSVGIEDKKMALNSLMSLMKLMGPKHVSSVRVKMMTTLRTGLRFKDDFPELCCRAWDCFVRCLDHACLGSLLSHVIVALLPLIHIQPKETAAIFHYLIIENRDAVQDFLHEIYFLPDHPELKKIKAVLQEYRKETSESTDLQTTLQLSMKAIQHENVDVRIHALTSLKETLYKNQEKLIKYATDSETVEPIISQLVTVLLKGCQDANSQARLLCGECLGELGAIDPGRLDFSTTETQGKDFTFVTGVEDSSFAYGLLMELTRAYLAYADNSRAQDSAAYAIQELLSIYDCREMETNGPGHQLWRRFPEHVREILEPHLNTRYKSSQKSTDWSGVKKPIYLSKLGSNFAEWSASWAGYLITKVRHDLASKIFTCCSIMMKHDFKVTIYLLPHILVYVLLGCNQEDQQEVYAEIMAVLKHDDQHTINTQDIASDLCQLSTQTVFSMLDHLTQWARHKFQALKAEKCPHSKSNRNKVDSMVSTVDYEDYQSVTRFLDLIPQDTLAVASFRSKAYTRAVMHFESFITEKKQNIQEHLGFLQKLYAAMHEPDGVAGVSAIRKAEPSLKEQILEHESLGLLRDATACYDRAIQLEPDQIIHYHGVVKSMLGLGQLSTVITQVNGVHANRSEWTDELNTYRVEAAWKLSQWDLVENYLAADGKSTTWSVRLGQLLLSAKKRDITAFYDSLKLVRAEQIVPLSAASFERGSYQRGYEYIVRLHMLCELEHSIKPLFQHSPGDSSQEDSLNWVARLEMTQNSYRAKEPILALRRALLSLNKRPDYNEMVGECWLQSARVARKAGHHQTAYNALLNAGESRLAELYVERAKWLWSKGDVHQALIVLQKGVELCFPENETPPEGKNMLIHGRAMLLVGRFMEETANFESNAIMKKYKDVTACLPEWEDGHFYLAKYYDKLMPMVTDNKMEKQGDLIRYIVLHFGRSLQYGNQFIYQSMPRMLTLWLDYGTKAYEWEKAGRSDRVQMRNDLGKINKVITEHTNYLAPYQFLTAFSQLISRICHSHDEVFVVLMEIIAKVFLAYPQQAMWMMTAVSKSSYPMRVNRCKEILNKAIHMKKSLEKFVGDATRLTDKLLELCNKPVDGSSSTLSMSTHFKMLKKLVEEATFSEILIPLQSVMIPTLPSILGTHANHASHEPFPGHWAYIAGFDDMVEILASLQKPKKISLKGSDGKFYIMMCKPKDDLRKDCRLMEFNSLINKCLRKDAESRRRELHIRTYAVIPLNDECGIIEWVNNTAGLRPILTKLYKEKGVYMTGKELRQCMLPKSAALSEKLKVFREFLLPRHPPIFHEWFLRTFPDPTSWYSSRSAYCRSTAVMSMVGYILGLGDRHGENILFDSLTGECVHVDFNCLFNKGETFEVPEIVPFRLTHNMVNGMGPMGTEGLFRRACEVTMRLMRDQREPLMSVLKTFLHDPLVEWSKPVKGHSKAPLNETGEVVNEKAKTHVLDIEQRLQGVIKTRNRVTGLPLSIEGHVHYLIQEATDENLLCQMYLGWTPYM

This experiment deals with full-length ATR (Homo sapiens (Human), UniProt Q13535). Kind of experiment: ATR Inhibition Assay (radioactive-phosphate incorporation). The following applies: read-out: ATR Ki. In kind it is biochemical. The gist of the method:
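Full-length human ATR (5 nM) was assayed at 25 °C in 50 mM Tris/HCl pH 7.5, 10 mM MgCl2, 1 mM DTT, with 10 μM [γ-33P]ATP and 800 μM peptide, after 10-min compound preincubation. Reactions were stopped after 24 h, captured on phosphocellulose and counted; Ki(app) came from non-linear regression of initial rates.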
For orientation: Ki means the dissociation constant of the complex between target and ligand, obtained from inhibition or displacement. Regarding `CN(C)Cc1ccc(-c2cnc(N)c(-c3nnc(-c4ccc(CO)cc4)o3)n2)cc1` [IA-240, [4-[5-[3-amino-6-[4-(dimethylaminomethyl)phenyl]pyrazin-2-yl]-1,3,4-oxadiazol-2-yl]phenyl]methanol], the Ki was in the range of 100 to 5000 nM.

As for `CN(C)C(=O)c1ccc(-c2cnc(N)c(-c3nnc(C4CC4)o3)n2)cc1` [IA-101, 4-[5-amino-6-(5-cyclopropyl-1,3,4-oxadiazol-2-yl)pyrazin-2-yl]-N,N-dimethyl-benzamide], the Ki lay in the range of 100 to 5000 nM.

In the case of `Nc1ncc(-c2ccccc2-c2cnco2)nc1-c1nnc(-c2ccccc2)o1` [IA-207, 5-(2-oxazol-5-ylphenyl)-3-(5-phenyl-1,3,4-oxadiazol-2-yl)pyrazin-2-amine], the Ki lay in the range of 100 to 5000 nM.

In the case of `CC(C)S(=O)(=O)c1ccc(-c2cnc(N)c(-c3nnc(CCNC(=O)OC(C)(C)C)o3)n2)cc1` [IA-251, tert-butyl N-[2-[5-[3-amino-6-(4-isopropylsulfonylphenyl)pyrazin-2-yl]-1,3,4-oxadiazol-2-yl]ethyl]carbamate], the Ki lay in the range of 100 to 5000 nM.

In the case of `CS(=O)(=O)c1ccc(-c2cnc(N)c(C(=O)Nc3ncns3)n2)cc1` [VII-7], the Ki lay within 10 to 100 nM.

As to `Nc1ncc(-c2cccnc2)nc1C(=O)Nc1ccc2cc[nH]c2c1` [Compound I-105, 3-amino-N-(1H-indol-6-yl)-6-(pyridin-3-yl)pyrazine-2-carboxamide], the Ki is 10 to 100 nM.

For `COCCN(C)C(=O)c1ccc(-c2cnc(N)c(C(=O)Nc3ccccc3)n2)cc1` [Compound I-45, 3-amino-6-(4-((2-methoxyethyl)(methyl)carbamoyl)phenyl)-N-phenylpyrazine-2-carboxamide], the Ki was in the range of 10 to 100 nM.

`Nc1ncc(-c2ccncc2)nc1C(=O)Nc1ccccc1` [Compound I-33, 3-amino-N-phenyl-6-(pyridin-4-yl)pyrazine-2-carboxamide]: the Ki lay in the range of 100 to 5000 nM.

With `CC(C)S(=O)(=O)c1ccc(-c2cnc(N)c(-c3nnc(-c4cccc(C#N)c4)o3)n2)cc1` [IA-187, 3-[5-[3-amino-6-(4-isopropylsulfonylphenyl)pyrazin-2-yl]-1,3,4-oxadiazol-2-yl]benzonitrile], the Ki was in the range of 10 to 100 nM.

For the compound `CS(=O)(=O)c1ccc(-c2cnc(N)c(-c3nc4ccccc4s3)n2)cc1` [Compound I-146, 3-(benzo[d]thiazol-2-yl)-5-(4-(methylsulfonyl)phenyl)pyrazin-2-amine], the Ki is 10 to 100 nM.

Turning to `COCCN(C)C(=O)c1cccc(-c2cnc(N)c(C(=O)Nc3ccccc3)n2)c1` [Compound I-67, 3-amino-6-(3-((2-methoxyethyl)(methyl)carbamoyl)phenyl)-N-phenylpyrazine-2-carboxamide], the Ki was in the range of 10 to 100 nM.

Turning to `CC(C)NCc1ccc(-c2cc(-c3nc(-c4ccc(S(=O)(=O)C(C)C)cc4)cnc3N)on2)cc1` [IIA-8, 3-[3-[4-[(isopropylamino)methyl]phenyl]isoxazol-5-yl]-5-(4-isopropylsulfonylphenyl)pyrazin-2-amine], the Ki was at most 10 nM.

In the case of `Nc1ncc(-c2ccc(S(=O)(=O)C3CCOCC3)cc2)nc1-c1nnc(-c2ccccc2F)o1` [IA-327, 3-[5-(2-fluorophenyl)-1,3,4-oxadiazol-2-yl]-5-(4-tetrahydropyran-4-ylsulfonylphenyl)pyrazin-2-amine], the Ki was at most 10 nM.

In the case of `CN(C)C(=O)c1ccc(-c2cnc(N)c(-c3nnc(N4CCOCC4)o3)n2)cc1` [IA-45], the Ki was 100 to 5000 nM.

In the case of `CS(=O)(=O)c1cccc(-c2cnc(N)c(C(=O)Nc3ccccc3)n2)c1` [Compound I-3], the inhibition constant (Ki) fell in the range of 100 to 5000 nM.

In the case of `N#Cc1cc(C(=O)N2CCCNCC2)ccc1-c1cnc(N)c(-c2nnc(-c3cccs3)o2)n1` [IA-152, 2-(5-amino-6-(5-(thiophen-2-yl)-1,3,4-oxadiazol-2-yl)pyrazin-2-yl)-5-(1,4-diazepane-1-carbonyl)benzonitrile], the Ki was at most 10 nM.

For the compound `CC(C)(C)OC(=O)N1CCCN(C(=O)c2ccc(-c3cnc(N)c(-c4nnc(-c5ccccc5)o4)n3)c(C#N)c2)CC1` [IA-19], the Ki is at most 10 nM.

On to `Nc1ncc(-c2cccc(C(=O)N3CCC(N4CCCC4)CC3)c2)nc1C(=O)Nc1ccccc1` [Compound I-56, 3-amino-N-phenyl-6-(3-(4-(pyrrolidin-1-yl)piperidine-1-carbonyl)phenyl)pyrazine-2-carboxamide], for which the Ki is 100 to 5000 nM.

On to `CC(=O)Nc1ccccc1-c1cnc(N)c(-c2nnc(-c3ccccc3)o2)n1` [IA-267, N-(2-(5-amino-6-(5-phenyl-1,3,4-oxadiazol-2-yl)pyrazin-2-yl)phenyl)ethanamide], for which the Ki lay within 10 to 100 nM.

As to `CS(=O)(=O)c1ccc(-c2cnc(N)c(C(=O)Nc3n[nH]c4ccccc34)n2)cc1` [Compound V-13], the inhibition constant Ki lay in the range of 100 to 5000 nM.

On to `COc1ncccc1NC(=O)c1nc(-c2ccc(S(C)(=O)=O)cc2)cnc1N` [VII-1], for which the Ki was 10 to 100 nM.

Turning to `Nc1ncc(-c2ccc(S(=O)(=O)N3CCC3)cc2)nc1-c1nnc(-c2ccccc2)o1` [IA-112, 5-[4-(azetidin-1-ylsulfonyl)phenyl]-3-(5-phenyl-1,3,4-oxadiazol-2-yl)pyrazin-2-amine], the Ki was at most 10 nM.

On to `N#Cc1ncccc1-c1cnc(N)c(-c2nnc(-c3ccccc3)o2)n1` [IA-74, 3-[5-amino-6-(5-phenyl-1,3,4-oxadiazol-2-yl)pyrazin-2-yl]pyridine-2-carbonitrile], for which the Ki is at most 10 nM.

Regarding `Cc1cnc(NC(=O)c2nc(-c3ccc(S(C)(=O)=O)cc3)cnc2N)s1` [VII-8], the Ki was 10 to 100 nM.

Turning to `Nc1ncc(-c2cccnc2)nc1C(=O)Nc1cccn2ncnc12` [Compound V-14], the Ki is 100 to 5000 nM.

In the case of `CNCc1ccc(-c2nnc(-c3nc(-c4ccc(S(=O)(=O)C(C)C)cc4)cnc3N)o2)cc1Cl` [IA-309, 3-[5-[3-chloro-4-(methylaminomethyl)phenyl]-1,3,4-oxadiazol-2-yl]-5-(4-isopropylsulfonylphenyl)pyrazin-2-amine], the Ki is at most 10 nM.

As to `Nc1ncc(-c2ccc(C(=O)NC3CCOCC3)cc2)nc1C(=O)Nc1ccccc1` [Compound I-47, 3-amino-N-phenyl-6-(4-(tetrahydro-2H-pyran-4-ylcarbamoyl)phenyl)pyrazine-2-carboxamide], the Ki fell in the range of 10 to 100 nM.

For the compound `CNCc1ccc(-c2nnc(-c3nc(-c4ccc(S(=O)(=O)CCN(C)C)cc4)cnc3N)o2)cc1` [IA-289, 5-[4-(2-dimethylaminoethylsulfonyl)phenyl]-3-[5-[4-(methylaminomethyl)phenyl]-1,3,4-oxadiazol-2-yl]pyrazin-2-amine], the Ki is at most 10 nM.

On to `CC(C)S(=O)(=O)c1ccc(-c2cnc(N)c(-c3nnc(C(=O)NC4CCCCC4N)o3)n2)cc1` (stereo not drawn) [IA-81, N-(2-aminocyclohexyl)-5-[3-amino-6-(4-isopropylsulfonylphenyl)pyrazin-2-yl]-1,3,4-oxadiazole-2-carboxamide], for which the Ki is 100 to 5000 nM.

As for `Nc1ncc(-c2ccc(O)nc2)nc1-c1nc2ccccc2[nH]1` [Compound I-137, 5-(5-amino-6-(1H-benzo[d]imidazol-2-yl)pyrazin-2-yl)pyridin-2-ol], the Ki was 10 to 100 nM.

Take `Nc1ncc(-c2cccnc2)nc1C(=O)Nc1ccc2cc[nH]c2c1` [Compound V-16]: the Ki lay within 10 to 100 nM.

As for `Cc1ccc2nc(-c3nc(-c4ccc(C(=O)N5CCCNCC5)cc4)cnc3N)[nH]c2c1` [Compound I-153, (4-(5-amino-6-(6-methyl-1H-benzo[d]imidazol-2-yl)pyrazin-2-yl)phenyl) (1,4-diazepan-1-yl)methanone], the Ki fell in the range of 10 to 100 nM.

In the case of `Nc1ncc(-c2ccc(C(=O)N3CCOCC3)cc2)nc1-c1nnc(-c2ccccc2)o1` [IA-13], the Ki lay in the range of 10 to 100 nM.

Consider `CN(C)CCN(C)C(=O)c1cccc(-c2cnc(N)c(C(=O)Nc3ccccc3)n2)c1` [Compound I-52, 3-amino-6-(3-((2-(dimethylamino)ethyl)(methyl)carbamoyl)phenyl)-N-phenylpyrazine-2-carboxamide], for which the Ki lay in the range of 100 to 5000 nM.

With `CCC(C)S(=O)(=O)c1ccc(-c2cnc(N)c(-c3nnc(-c4ccc(CNC)cc4)o3)n2)cc1` (stereo not drawn) [IA-313, 3-[5-[4-(methylaminomethyl)phenyl]-1,3,4-oxadiazol-2-yl]-5-(4-sec-butylsulfonylphenyl)pyrazin-2-amine], the Ki is at most 10 nM.

Take `Cc1ccsc1-c1nnc(-c2nc(-c3ccc(S(=O)(=O)CCN(C)C)cc3)cnc2N)o1` [IA-269, 5-[4-(2-dimethylaminoethylsulfonyl)phenyl]-3-[5-(3-methyl-2-thienyl)-1,3,4-oxadiazol-2-yl]pyrazin-2-amine]: the Ki was at most 10 nM.

As to `CN(C)C(=O)c1ccc(-c2cnc(N)c(-c3nnc(-c4sccc4C#N)o3)n2)cc1` [IA-189, 4-[5-amino-6-[5-(3-cyano-2-thienyl)-1,3,4-oxadiazol-2-yl]pyrazin-2-yl]-N,N-dimethyl-benzamide], the Ki lay in the range of 10 to 100 nM.

In the case of `CC(C)Oc1ccccc1-c1nnc(-c2nc(-c3ccc(C(=O)N(C)C)cc3)cnc2N)o1` [IA-108, 4-[5-amino-6-[5-(2-isopropoxyphenyl)-1,3,4-oxadiazol-2-yl]pyrazin-2-yl]-N,N-dimethyl-benzamide], the Ki was at most 10 nM.

With `CNCc1ccc(-c2nnc(-c3nc(-c4ccc(S(=O)(=O)C(C)C)cc4)cnc3N)o2)c(OC)c1` [IA-171, 5-(4-isopropylsulfonylphenyl)-3-[5-[2-methoxy-4-(methylaminomethyl)phenyl]-1,3,4-oxadiazol-2-yl]pyrazin-2-amine], the Ki was at most 10 nM.

With `CNCc1ccc(-c2nnc(-c3nc(-c4ccc(S(=O)(=O)C5CCOCC5)cc4)cnc3N)o2)c(F)c1` [IA-344, 3-[5-[2-fluoro-4-(methylaminomethyl)phenyl]-1,3,4-oxadiazol-2-yl]-5-(4-tetrahydropyran-4-ylsulfonylphenyl)pyrazin-2-amine], the Ki was at most 10 nM.

`Nc1ncc(-c2cccc(C(=O)N3CCNCC3)c2)nc1C(=O)Nc1ccccc1` [Compound I-53, 3-amino-N-phenyl-6-(3-(piperazine-1-carbonyl)phenyl) pyrazine-2-carboxamide]: the Ki is 100 to 5000 nM.

For the compound `Nc1ncc(-c2ccc(C(=O)N3CCCNCC3)cc2)nc1C(=O)Nc1ccc2cn[nH]c2c1` [Compound V-4], the Ki fell in the range of 10 to 100 nM.
